# According to doi:10.1101/2025.04.28.650843v1, “The structure of phycobilisome with a bicylindrical core from the cyanobacterium Synechococcus elongatus PCC 7942” (biorxiv, 2025):
# How the values were obtained:
# Test in all cases: cryo-EM structure of phycobilisome, […] Å
# Type in all cases: binding
# ApcD = target: T1, ApcD (Synechococcus elongatus, UniProt Q31RP7); settings: covalent; terminal emitter; pH 7.0
# T1 construct: gene Synpcc7942_0240; native subunit in phycobilisome core (trimer 4), glutaraldehyde cross-linked
# T1 sequence (Q31RP7 1-163): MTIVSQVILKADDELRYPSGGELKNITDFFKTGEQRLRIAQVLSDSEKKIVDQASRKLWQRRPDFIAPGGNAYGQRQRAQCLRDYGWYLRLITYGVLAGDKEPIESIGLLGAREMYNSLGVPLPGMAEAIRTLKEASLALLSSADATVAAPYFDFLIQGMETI
# ApcE (LCM), αApcE domain = target: T2, ApcE (LCM), αApcE domain (Synechococcus elongatus, UniProt Q31RF9); settings: covalent, terminal emitter, pH 7.0
# T2 construct: gene Synpcc7942_0328; native ApcE with two REP domains in phycobilisome core (trimer 3), glutaraldehyde cross-linked; bilin in N-terminal αApcE domain
# T2 sequence (Q31RF9 1-705): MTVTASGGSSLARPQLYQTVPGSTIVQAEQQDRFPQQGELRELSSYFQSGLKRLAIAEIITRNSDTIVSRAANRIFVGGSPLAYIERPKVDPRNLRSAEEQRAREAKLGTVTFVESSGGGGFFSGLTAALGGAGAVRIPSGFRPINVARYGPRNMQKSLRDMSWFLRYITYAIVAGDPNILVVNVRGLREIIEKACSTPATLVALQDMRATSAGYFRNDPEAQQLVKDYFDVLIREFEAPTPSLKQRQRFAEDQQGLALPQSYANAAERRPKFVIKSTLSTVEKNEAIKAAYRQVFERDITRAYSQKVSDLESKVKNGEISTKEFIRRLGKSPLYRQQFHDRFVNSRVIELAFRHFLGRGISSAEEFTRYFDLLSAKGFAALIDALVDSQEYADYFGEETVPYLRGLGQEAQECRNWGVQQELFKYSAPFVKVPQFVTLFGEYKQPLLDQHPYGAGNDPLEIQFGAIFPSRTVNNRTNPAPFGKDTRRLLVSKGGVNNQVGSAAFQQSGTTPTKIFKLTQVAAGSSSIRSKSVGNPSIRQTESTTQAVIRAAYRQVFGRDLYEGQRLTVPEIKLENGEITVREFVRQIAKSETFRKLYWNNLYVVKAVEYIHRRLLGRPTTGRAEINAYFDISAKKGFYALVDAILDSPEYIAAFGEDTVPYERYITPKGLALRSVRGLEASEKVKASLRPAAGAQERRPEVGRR
# ApcF = target: T3, ApcF (Synechococcus elongatus, UniProt O50209); settings: covalent; pH 7.0
# T3 construct: native subunit in phycobilisome core, glutaraldehyde cross-linked
# T3 sequence (O50209 1-169): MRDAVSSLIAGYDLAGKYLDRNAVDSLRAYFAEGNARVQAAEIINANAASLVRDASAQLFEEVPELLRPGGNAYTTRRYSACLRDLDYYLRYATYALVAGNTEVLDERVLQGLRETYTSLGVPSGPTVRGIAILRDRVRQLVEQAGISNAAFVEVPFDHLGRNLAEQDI
compound,measurement,setting,value
C/C=C1/C(=C/C2=NC(=C\c3[nH]c(/C=C4\NC(=O)C(CC)=C4C)c(C)c3CCC(=O)O)/C(CCC(=O)O)=C2C)NC(=O)[C@@H]1C [phycocyanobilin],"cryo-EM structure of phycobilisome, 2.98 Å",ApcD,terminal emitters (ApcD and the α^ApcE domain) are deduced based on the shortest distances
same,"cryo-EM structure of phycobilisome, 2.98 Å","ApcE (LCM), αApcE domain",terminal emitters (ApcD and the α^ApcE domain) are deduced based on the shortest distances
same,"cryo-EM structure of phycobilisome, 2.98 Å",ApcF,Bilins in rods and core are painted the same colors as the corresponding proteins
